Source: patent publication US5206247A, “Spiro(4.5.)decane compounds” (Adir Et Compagnie, priority 1990, dated 1993)

Assays:
[1] = tested on: human LDLs; assay: Modification of the LDLs by copper sulphate (MDA formation); assay type: biochemical; conditions: for IC50: oxidation by copper sulphate, 24 hours, read-out: IC50 Cu^2+ (inhibition of lipid peroxidation of human LDLs, MDA production); for ability to protect human LDLs compared with probucol or vitamin E, copper sulphate: modifications induced by copper sulphate
Experimental: Human LDLs are incubated for 24 hours in the presence of copper sulphate (5×10^-5 M or 5×10^-6 M) and in the absence or presence of the test compounds (10^-7 M to 10^-4 M).
After incubation, the peroxidation of the LDLs is evaluated by electrophoresis on agar gel and by the formation of one of the products of lipid peroxidation: malonic dialdehyde (MDA) (Parthasarathy S., Young S. G., Witztum J. L., Pittman R. C., and Steinberg D.; J. Clin. Invest. 77, 641-644, 1986).
The activity of the test compounds is evaluated by calculating the concentrations that reduce the production of MDA by 50% (IC50) compared with control experiments carried out in the absence of test compound.
(§1) Table A lists the IC50 values, which indicate the capacity to inhibit the lipid peroxidation of human LDLs, obtained with a sample of the compounds of the invention and of the reference compounds probucol and vitamin E, in two tests causing the development of the oxidation of the LDLs: by copper sulphate (Cu^2+) or by endothelial cells (EC).

[2] = tested on: human LDLs; assay: Modification of the LDLs by endothelial cells (MDA formation); assay type: cell-based; conditions: for ability to protect human LDLs compared with probucol or vitamin E, endothelial cells: modifications induced by endothelial cells; for IC50: oxidation by rabbit aorta endothelial cells, 24 hours, read-out: IC50 EC (inhibition of lipid peroxidation of human LDLs, MDA production); for times more powerful than probucol (endothelial cells): test using endothelial cells
Experimental: Human LDLs are incubated for 24 hours in the presence of rabbit aorta endothelial cells (line RECL B4 supplied by Professor Steinberg, USA) and in the absence or presence of the test compounds (10^-7 M to 10^-4 M).
After incubation, the peroxidation of the LDLs is evaluated by electrophoresis on agar gel and by the formation of one of the products of lipid peroxidation: malonic dialdehyde (MDA) (Steinbrecher U.P., Parthasarathy S, Leake D. S., Witztum J. L., and Steinberg D., Proc. Nat. Acad. Sci. USA 81. 3883-3887, 1984).
The activity of the test compounds is evaluated by calculating the concentrations that reduce the production of MDA by 50% (IC50) compared with the control experiments carried out in the absence of test compound.
as §1

[3] = tested on: LDLs of the Watanabe rabbits; assay: Ex vivo copper sulphate oxidation of LDLs from orally treated Watanabe rabbits (MDA production); assay type: in vivo; conditions: for MDA production: 3 days
Experimental: Watanabe rabbits ([…] hyperlipidaemic rabbits) are used that range in weight from 3 kg to 5 kg. The animals are treated orally with the carrier of the test compounds (control group) or with the test compounds at doses of 10, 50 and 250 mg/kg/day for 3 days.
When the treatment is complete, the LDLs of the animals are prepared by ultracentrifugation and subjected to oxidation with copper sulphate (5×10^-6 M). The lipid peroxidation of the LDLs is evaluated after various periods of incubation with copper sulphate (from 2 to 24 hours) by measuring the formation of MDA.
Table C lists the MDA production values according to the incubation period with copper sulphate of those LDLs originating from the control animals and those originating from the animals treated with the compounds of Examples 1, 3 and 31 at different doses or with probucol.

[4] = tested on: cardiac cells; assay: Oxidative necrosis of cardiac cells induced by hypoxanthine/xanthine oxidase; assay type: cell-based, new-born rats; conditions: for index of necrosis of cardiac cells / activity at 10 µM / activity at 1 µM / activity at 0.1 µM: control = 100, means ± sem; for index of necrosis of cardiac cells: 240 min; for activity at 10 µM / activity at 1 µM / activity at 0.1 µM: read-out: index of necrosis of cardiac cells; for effect on oxidative necrosis of cardiac cells compared with reference compounds: 10^-6 M and 10^-5 M; for inhibition at 10 µM / inhibition at 1 µM: Cardiomyocyte, read-out: reduction of oxidative necrosis of cardiomyocytes
Experimental: Cardiac cells of new-born rats are used between the 5th and 6th days after placing in a culture. Oxidative necrosis is induced by the enzymatic system hypoxanthine (HX, 1 mM) and xanthine oxidase (XO, 10 mU/ml), which produces free radicals. The necrosis is evaluated 4 hours after the addition of XO/HX by the spectrophotometric measurement of the cytosolic α-hydroxybutyrate dehydrogenase (α-HBDH) activity liberated in the supernatant. Two reference molecules (probucol, vitamin E) and 3 molecules representative of the present invention (corresponding to Examples 1, 3 and 4) were tested. The cells are treated with the molecules 16 hours and 1 hour before the beginning of the experiment after renewing the medium. At the beginning of the experiment, the treatment is carried out one last time.
Table B lists the indices of the necrosis of cardiac cells induced by the system hypoxanthine/xanthine oxidase on its own or in the presence of increasing concentrations of the compounds of the invention or of the reference compounds: probucol and vitamin E.
The necrosis index 100 corresponds to a liberation of 43.6±1.0% in 4 hours of the cytosolic content of α-HBDH in the supernatant.
The results are expressed in the form of means ± sem (4≤n≤5, 3 repetitions per experiment).

[5] = 50 mg/kg/day oral, 2 hours incubation with copper sulphate
[6] = 50 mg/kg/day oral, 4 hours incubation with copper sulphate
[7] = 50 mg/kg/day oral, 6 hours incubation with copper sulphate
[8] = 50 mg/kg/day oral, 8 hours incubation with copper sulphate
[9] = 50 mg/kg/day oral, 24 hours incubation with copper sulphate
[10] = 250 mg/kg/day oral, 2 hours incubation with copper sulphate
[11] = 250 mg/kg/day oral, 4 hours incubation with copper sulphate
[12] = 250 mg/kg/day oral, 6 hours incubation with copper sulphate
[13] = 250 mg/kg/day oral, 8 hours incubation with copper sulphate
[14] = 250 mg/kg/day oral, 24 hours incubation with copper sulphate
[15] = oral, peroxidation induced by copper sulphate
[16] = Rattus norvegicus, 4 h, 10^-5 M
[17] = Rattus norvegicus, 4 h, 10^-6 M
[18] = Rattus norvegicus, 4 h, 10^-7 M

Compound | IC50 [1] [nM] | ability to protect human LDLs compared with probucol or vitamin E, copper sulphate [1] | ability to protect human LDLs compared with probucol or vitamin E, endothelial cells [2] | IC50 [2] [nM] | MDA production [3, 10] [nM/mg proteins] | MDA production [3, 11] [nM/mg proteins] | MDA production [3, 12] [nM/mg proteins] | MDA production [3, 13] [nM/mg proteins] | MDA production [3, 14] [nM/mg proteins] | times more powerful than probucol (endothelial cells) [2] [times] | activity at 10 µM [4, 16] [%] | activity at 1 µM [4, 17] [%] | activity at 0.1 µM [4, 18] [%] | other results
Cc1c(C)c2c(c(C)c1O)CCC(C)(CCCN1CCC3(CC1)CNC(=O)O3)O2 (stereo not drawn) [Example 34] | 300 |  |  |  |  |  |  |  |  |  |  |  |  | 
CC(C)(CCN1CCC2(CC1)CNC(=O)O2)Sc1cc(C(C)(C)C)c(O)c(C(C)(C)C)c1 [Example 31] | 800 | greater ability | greater ability | 20 | 0.19 | 0.51 | 0.16 | 0.71 | 0.99 |  |  |  |  | MDA production [3, 5]: 0.33 nM/mg proteins; MDA production [3, 6]: 0.72 nM/mg proteins; MDA production [3, 7]: 1.03 nM/mg proteins; MDA production [3, 8]: 1.04 nM/mg proteins; MDA production [3, 9]: 3.16 nM/mg proteins; dose from which peroxidation of the LDLs is inhibited [3, 15]: ≥ 50 mg/kg/day
vitamin E [reference compound] | > 100000 |  |  | 4000 |  |  |  |  |  |  |  |  |  | index of necrosis of cardiac cells ([4]; 10^-5 M, 10 µM): 61.1 ± 2.5; index of necrosis of cardiac cells ([4]; 10^-6 M, 1 µM): 79.0 ± 7.4; index of necrosis of cardiac cells ([4]; 10^-7 M, 0.1 µM): 83.5 ± 8.0
CC(C)(C)c1cc(OCCCCCN2CCC3(CC2)CNC(=O)O3)cc(C(C)(C)C)c1O [Example 5] | 700 | greater ability | greater ability | 800 |  |  |  |  |  |  |  |  |  | 
Cc1c(C)c2c(c(C)c1O)CCC(C)(CCN1CCC3(CC1)CNC(=O)O3)O2 (stereo not drawn) [Example 33] | 300 |  |  |  |  |  |  |  |  |  |  |  |  | 
Cc1cc(SCC(O)CN2CCC3(CC2)CNC(=O)O3)c(C)c(C)c1O (stereo not drawn) [Example 32] | 300 |  |  |  |  |  |  |  |  | 100 |  |  |  | 
CC(C)(Sc1cc(C(C)(C)C)c(O)c(C(C)(C)C)c1)Sc1cc(C(C)(C)C)c(O)c(C(C)(C)C)c1 [probucol, reference compound] | 3000 |  |  | 4000 | 1.85 | 3.50 | 4.90 | 12.26 | 23.81 |  | 26.6 ± 6.3 | 68.8 ± 3.9 | 103 ± 2 | retardation of peroxidation of the LDLs compared with control animals ([3]; oral treatment of Watanabe rabbits): approximately 2 hours
CC(C)(C)c1cc(OCCCN2CCC3(CC2)CNC(=O)O3)cc(C(C)(C)C)c1O [Example 6] | 300 | greater ability | greater ability | 300 |  |  |  |  |  |  |  |  |  | 
Cc1cc(OCCCCCN2CCC3(CC2)CNC(=O)O3)c(C)c(C)c1O [Example 30] | 300 |  |  |  |  |  |  |  |  |  |  |  |  | 
CC(C)(C)c1cc(SCCCCCN2CCC3(CC2)CNC(=O)O3)cc(C(C)(C)C)c1O [Example 4] | 800 | greater ability | greater ability | 20 |  |  |  |  |  | 100 | 2.6 ± 0.7 | 2.1 ± 1 | 79.1 ± 8 | effect on oxidative necrosis of cardiac cells compared with reference compounds [4]: distinctly superior to the reference compounds; inhibition at 10 µM [4, 16]: > 95%; inhibition at 1 µM [4, 17]: > 80%
CC(C)(C)c1cc(SCCCN2CCC3(CC2)CNC(=O)O3)cc(C(C)(C)C)c1O [Example 3] | 300 | greater ability | greater ability |  | 0.66 | 0 | 0 | 0.69 | 0.91 | 100 | 4.2 ± 2.7 | 12 ± 4.4 | 60.6 ± 17.1 | effect on oxidative necrosis of cardiac cells compared with reference compounds [4]: distinctly superior to the reference compounds; inhibition at 10 µM [4, 16]: > 95%; inhibition at 1 µM [4, 17]: > 80%; MDA production ([3]; 10 mg/kg/day oral, 2 hours incubation with copper sulphate): 1.27 nM/mg proteins; MDA production ([3]; 10 mg/kg/day oral, 4 hours incubation with copper sulphate): 0.27 nM/mg proteins; MDA production ([3]; 10 mg/kg/day oral, 6 hours incubation with copper sulphate): 3.29 nM/mg proteins; MDA production ([3]; 10 mg/kg/day oral, 8 hours incubation with copper sulphate): 6.85 nM/mg proteins; MDA production ([3]; 10 mg/kg/day oral, 24 hours incubation with copper sulphate): 22.78 nM/mg proteins; MDA production [3, 5]: 0.16 nM/mg proteins; MDA production [3, 6]: 0 nM/mg proteins; MDA production [3, 7]: 1.06 nM/mg proteins; MDA production [3, 8]: 1.44 nM/mg proteins; MDA production [3, 9]: 7.30 nM/mg proteins; dose from which particularly effective [3, 15]: ≥ 10 mg/kg/day; dose from which peroxidation of the LDLs is inhibited [3, 15]: ≥ 50 mg/kg/day
CC(C)(C)c1cc(SCC(O)CN2CCC3(CC2)CNC(=O)O3)cc(C(C)(C)C)c1O (racemic) [Example 1, (R,S)-8-[3-(3,5-di-tert.-butyl-4-hydroxyphenylthio)-2-hydroxypropyl]-1-oxa-2-oxo-3,8-diazaspiro[4.5]decane] |  | greater ability | greater ability |  | 0.2 | 1.27 | 0 | 0 | 1.02 | 100 | 3.8 ± 1.9 | 19.1 ± 7.3 | 42.8 ± 11.3 | effect on oxidative necrosis of cardiac cells compared with reference compounds [4]: distinctly superior to the reference compounds; inhibition at 0.1 µM ([4]; Rattus norvegicus, 4 h, starting from 10^-7 M, read-out: protective effect on oxidative necrosis of cardiac cells): > 50%; inhibition at 10 µM [4, 16]: > 95%; inhibition at 1 µM [4, 17]: > 80%; dose from which peroxidation of the LDLs is inhibited [3, 15]: ≥ 50 mg/kg/day
CC(C)(C)c1cc(OCC(O)CN2CCC3(CC2)CNC(=O)O3)cc(C(C)(C)C)c1O (stereo not drawn) [Example 7] | 2000 |  |  |  |  |  |  |  |  |  |  |  |  | 
